In patent US7138361B2, “Herbicidal heterocycles” (E. I. du Pont de Nemours and Company, priority 2000, dated 2006):

Key:
Format in all cases: in vivo
Nightshade [1] = assay: Test C preemergence; conditions: Rate 500 g/ha, visual evaluation after 12 to 14 days
[2] = tested on: lambsquarters (Chenopodium album); assay: Test C preemergence
Summary of the method: (§1)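 Plants held in greenhouse for 12–14 days post-application are scored by eye against controls on a 0–100 control scale. Application timing: preemergence on sown seed, or postemergence on 2–18 cm plants.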

[3] = tested on: cocklebur (Xanthium strumarium); assay: Test C preemergence
Summary of the method: as §1

kochia (Kochia scoparia) = assay: Test C preemergence
Summary of the method: as §1

[4] = tested on: woolly cupgrass (Eriochloa villosa); assay: Test C preemergence
Summary of the method: as §1

[5] = tested on: velvetleaf (Abutilon theophrasti); assay: Test C preemergence
Summary of the method: as §1

soybean (Glycine max) = assay: Test C preemergence
Summary of the method: as §1

[6] = tested on: bermudagrass (Cynodon dactylon); assay: Test C preemergence
Summary of the method: as §1

Nightshade [7] = assay: Test C preemergence
[8] = tested on: common ragweed (Ambrosia elatior); assay: Test C preemergence
Summary of the method: as §1

[9] = tested on: pigweed (Amaranthus retroflexus); assay: Test C preemergence
Summary of the method: as §1

Sunflower = assay: Test C preemergence; conditions: Rate 125 g/ha; scale 0 to 100, 0 no effect, 100 complete control
corn (Zea mays) = assay: Test C preemergence; conditions: preemergence
Summary of the method: as §1

[10] = tested on: yellow nutsedge (Cyperus esculentus); assay: Test C preemergence; conditions: preemergence
Summary of the method: as §1

[11] = tested on: morningglory (Ipomoea hederacea); assay: Test C preemergence
Summary of the method: as §1

[12] = tested on: johnsongrass (Sorghum halepense); assay: Test C preemergence
Summary of the method: as §1

[13] = tested on: goosegrass (Eleusine indica); assay: Test C preemergence
Summary of the method: as §1

[14] = tested on: giant foxtail (Setaria faberii); assay: Test C preemergence
Summary of the method: as §1

[15] = tested on: Surinam grass (Brachiaria decumbens); assay: Test C preemergence
Summary of the method: as §1

[16] = tested on: crabgrass (Digitaria sanguinalis); assay: Test C preemergence
Summary of the method: as §1

[17] = tested on: duck salad (Heteranthera limosa); assay: Test C flooded paddy test; conditions: for Plant response rating, Ducksalad: scale 0 to 100 (0 no effect, 100 complete control)
Summary of the method: (§2)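 Each species was cultivated to 2 leaves in flooded paddy pots, then treated. After a greenhouse period of 12–14 days, the plants were scored visually relative to controls from 0 (no effect) to 100 (complete control).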

rice (Oryza saliva) = assay: Test C flooded paddy test; conditions: for Plant response rating, Rice: scale 0 to 100 (0 no effect, 100 complete control)
Summary of the method: as §2

[18] = tested on: smallflower flatsedge (Cyperus difformis); assay: Test C flooded paddy test; conditions: for Plant response rating, Flatsedge: scale 0 to 100 (0 no effect, 100 complete control)
Summary of the method: as §2

[19] = Rate 125 g/ha, scale 0 to 100, 0 no effect, 100 complete control
[20] = preemergence, Rate 62 g/ha, scale 0 to 100
[21] = preemergence, Rate 500 g/ha, visual evaluation after 12 to 14 days
[22] = preemergence, Rate 250 g/ha, scale 0 to 100, 0 no effect, 100 complete control
[23] = Rate 250 g/ha, scale 0 to 100, 0 no effect, 100 complete control
[24] = Rate 500 g/ha, visual evaluation after 12 to 14 days
[25] = Flooded Paddy, Rate 500 g/ha, scale 0 to 100, 0 no effect, 100 complete control
[26] = flooded paddy test, Rate 125 g/ha
[27] = flooded paddy test, Rate 250 g/ha
[28] = flooded paddy test, Rate 62 g/ha, visually evaluated after 12 to 14 days, 0 = no effect, 100 = complete control

In the case of CC(C)(C)c1ccn(C2OCN(c3cccc(OC(F)F)c3)C2=O)n1 (centres unmarked) [Compound 133], the “Plant response rating (0 to 100), Nightshade” value (Nightshade [1]) was 90, the “Plant response rating, Lambsquarters” value [2, 19] was 100 and the “Plant response rating, Lambsquarters” value [2, 20] was 100. The “Plant response rating (0 to 100), Lambsquarters” value [2, 21] was 100, the “Plant response rating, Lambsquarters” value [2, 22] was 100 and the “Plant response rating, Cocklebur” value [3, 19] was 0. For the same compound, the “Plant response rating, Cocklebur” value [3, 20] was 0, the “Plant response rating (0 to 100), Cocklebur” value [3, 21] was 0 and the “Plant response rating, Cocklebur” value [3, 22] was 0. The “Plant response rating, Kochia” value (kochia (Kochia scoparia); [19]) was 100, the “Plant response rating, Kochia” value (kochia (Kochia scoparia); [20]) was 100 and the “Plant response rating (0 to 100), Kochia” value (kochia (Kochia scoparia); [21]) was 100. The “Plant response rating, Kochia” value (kochia (Kochia scoparia); [22]) was 100, the “Plant response rating, Cupgrass, Woolly” value [4, 19] was 100 and the “Plant response rating, Cupgrass, Woolly” value [4, 20] was 100. For the same compound, the “Plant response rating (0 to 100), Cupgrass, Woolly” value [4, 21] was 100, the “Plant response rating, Cupgrass, Woolly” value [4, 22] was 100 and the “Plant response rating, Velvetleaf” value [5, 19] was 20. The “Plant response rating, Velvetleaf” value [5, 20] was 0, the “Plant response rating (0 to 100), Velvetleaf” value [5, 21] was 30 and the “Plant response rating, Velvetleaf” value [5, 22] was 20. For the same compound, the “Plant response rating, Soybean” value (soybean (Glycine max); [19]) was 0, the “Plant response rating, Soybean” value (soybean (Glycine max); [20]) was 0 and the “Plant response rating (0 to 100), Soybean” value (soybean (Glycine max); [21]) was 0. For the same compound, the “Plant response rating, Soybean” value (soybean (Glycine max); [22]) was 0, the “Plant response rating, Bermudagrass” value [6, 19] was 100 and the “Plant response rating, Bermudagrass” value [6, 20] was 100. The “Plant response rating (0 to 100 where 0 is no effect and 100 is complete control), Bermudagrass” value [6, 21] was 100, the “Plant response rating, Bermudagrass” value [6, 22] was 100 and the “Plant response rating, Nightshade” value (Nightshade [7]; Rate 62 g/ha, scale 0 to 100) was 0. The “Plant response rating, Nightshade” value (Nightshade [7]; [19]) was 0, the “Plant response rating, Nightshade” value (Nightshade [7]; [23]) was 20 and the “Plant response rating, Ragweed, Common” value [8, 19] was 0. For the same compound, the “Plant response rating, Ragweed, Common” value [8, 20] was 0, the “Plant response rating (0 to 100), Ragweed, Common” value [8, 21] was 0 and the “Plant response rating, Ragweed, Common” value [8, 22] was 0. For the same compound, the “Plant response rating, Pigweed” value [9, 19] was 100, the “Plant response rating, Pigweed” value [9, 20] was 50 and the “Plant response rating (0 to 100), Pigweed” value [9, 21] was 100. For the same compound, the “Plant response rating, Pigweed” value [9, 22] was 100, the “Plant response rating, Sunflower” value (Sunflower) was 0 and the “Plant response rating, Corn” value (corn (Zea mays); Rate 62 g/ha, scale 0 to 100) was 100. The “Plant response rating (0 to 100), Corn” value (corn (Zea mays); [24]) was 100, the “Plant response rating, Corn” value (corn (Zea mays); [23]) was 100 and the “Plant response rating, Nutsedge” value ([10]; Rate 62 g/ha, scale 0 to 100) was 70. For the same compound, the “Plant response rating (0 to 100), Nutsedge” value [10, 24] was 90, the “Plant response rating, Nutsedge” value [10, 23] was 90 and the “Plant response rating, Morningglory” value [11, 19] was 0. The “Plant response rating, Morningglory” value [11, 20] was 0, the “Plant response rating (0 to 100), Morningglory” value [11, 21] was 30 and the “Plant response rating, Morningglory” value [11, 22] was 20. For the same compound, the “Plant response rating, Johnsongrass” value [12, 19] was 100, the “Plant response rating, Johnsongrass” value [12, 20] was 80 and the “Plant response rating (0 to 100), Johnsongrass” value [12, 21] was 100. For the same compound, the “Plant response rating, Johnsongrass” value [12, 22] was 100, the “Plant response rating, Goosegrass” value [13, 19] was 100 and the “Plant response rating, Goosegrass” value [13, 20] was 100. For the same compound, the “Plant response rating (0 to 100), Goosegrass” value [13, 21] was 100, the “Plant response rating, Goosegrass” value [13, 22] was 100 and the “Plant response rating, Foxtail, Giant” value [14, 19] was 100. The “Plant response rating, Foxtail, Giant” value [14, 20] was 90, the “Plant response rating (0 to 100), Foxtail, Giant” value [14, 21] was 100 and the “Plant response rating, Foxtail, Giant” value [14, 22] was 100. For the same compound, the “Plant response rating, Surinam grass” value [15, 19] was 100, the “Plant response rating, Surinam grass” value [15, 20] was 100 and the “Plant response rating (0 to 100), Surinam grass” value [15, 21] was 100. For the same compound, the “Plant response rating, Surinam grass” value [15, 22] was 100, the “Plant response rating, Crabgrass” value [16, 19] was 100 and the “Plant response rating, Crabgrass” value [16, 20] was 100. The “Plant response rating (0 to 100), Crabgrass” value [16, 21] was 100, the “Plant response rating, Crabgrass” value [16, 22] was 100 and the “Ducksalad plant response rating” value [17, 25] was 100. The “Plant response rating, Ducksalad” value [17, 26] was 100, the “Plant response rating, Ducksalad” value [17, 27] was 100 and the “Plant response rating (scale 0 to 100), Ducksalad” value [17, 28] was 50. The “Rice plant response rating” value (rice (Oryza saliva); [25]) was 90, the “Plant response rating, Rice” value (rice (Oryza saliva); [26]) was 70 and the “Plant response rating, Rice” value (rice (Oryza saliva); [27]) was 90. The “Plant response rating (scale 0 to 100), Rice” value (rice (Oryza saliva); [28]) was 60, the “Flatsedge plant response rating” value [18, 25] was 100 and the “Plant response rating, Flatsedge” value [18, 26] was 100. For the same compound, the “Plant response rating, Flatsedge” value [18, 27] was 100 and the “Plant response rating (scale 0 to 100), Flatsedge” value [18, 28] was 100.
